In US20090203523A1, “Fungicidal Mixtures Made From 1-Methylpyrazol-4-Ylcarboxanilides” (BASF AKTIENGESSELLSCHFT, priority 2005, published 2009):

How the values were obtained:
[1] = system: Puccinia recondita; test: Curative activity against brown rust of wheat; format: in vivo; settings: wheat seedlings, efficacy in % of untreated control, 7 days
[2] = system: Pyrenophora teres; test: Activity against net blotch of barley, 1 day protective application; format: in vivo; settings: barley seedlings, efficacy in % of untreated control, evaluated after 6 days
[3] = system: Phytophthora infestans; format: cell-based; settings: 0.25 mg/l; microtiter plate, absorption at 405 nm on day 7
[4] = system: Botrytis cinerea; test: Activity against gray mold on bell pepper leaves, 1 day protective use; format: in vivo; settings: 16 mg/l; bell pepper seedlings, efficacy in % of untreated control, evaluated after 5 days
[5] = system: Puccinia recondita; test: Protective activity against brown rust of wheat; format: in vivo; settings: wheat seedlings, efficacy in % of untreated control

Compound: Fc1ccc([C@]2(Cn3cncn3)O[C@H]2c2ccccc2Cl)cc1 (racemic) [epoxiconazole, (2RS,3SR)-1-[3-(2-chlorophenyl)-2,3-epoxy-2-(4-fluorophenyl)propyl]-1H-1,2,4-triazole, reference compound]
- Observed activity (efficacy, % of untreated control) ([1]; 0.063 mg/l): 0%

Compound: CC1CCN(c2c(-c3c(F)cc(F)cc3F)c(Cl)nc3ncnn23)CC1 [5-chloro-7-(4-methylpiperidin-1-yl)-6-(2,4,6-trifluorophenyl)-[1,2,4]triazolo[1,5-a]pyrimidine]
- Observed activity ([2]; 1 mg/l): 44%

Compound: Cn1cc(C(=O)Nc2ccccc2-c2ccc(C(F)(F)F)cc2)c(C(F)(F)F)n1 [No. I.1, N-(4′-trifluoromethylbiphenyl-2-yl)-1-methyl-3-trifluoromethyl-1H-pyrazole-4-carboxamide]
- Observed activity ([2]; 0.25 mg/l): 11%
- Observed activity ([2]; 1 mg/l): 56%
- Observed activity (% infection) [3]: 3%
- melting point: 175 to 177 °C

Compound: Cn1cc(C(=O)Nc2ccccc2-c2ccc(C(F)(F)F)cc2)c(C(F)F)n1 [No. I.2, N-(4′-trifluoromethylbiphenyl-2-yl)-3-difluoromethyl-1-methyl-1H-pyrazole-4-carboxamide]
- Observed efficacy (% of untreated control) [4]: 70%
- Observed activity (efficacy, % of untreated control) ([1]; 0.25 mg/l): 0%
- Observed activity (efficacy, % of untreated control) ([1]; 1 mg/l): 56%
- Observed efficacy (% of untreated control) ([5]; 16 mg/l): 0%
- melting point: 164 to 165 °C

Compound: Cn1nc(C(F)(F)F)c(C(=O)Nc2ccccc2-c2ccc(C(F)(F)F)cc2)c1F [No. I.3, N-(4′-trifluoromethylbiphenyl-2-yl)-1-methyl-3-trifluoromethyl-5-fluoro-1H-pyrazole-4-carboxamide]
- melting point: 170 to 173 °C

Compound: Cc1nn(C)c(Cl)c1C(=O)Nc1ccccc1-c1ccc(C(F)(F)F)cc1 [No. I.5, N-(4′-trifluoromethylbiphenyl-2-yl)-1,3-dimethyl-5-chloro-1H-pyrazole-4-carboxamide]
- melting point: 173 to 175 °C

Compound: Cc1nn(C)cc1C(=O)Nc1ccccc1-c1ccc(C(F)(F)F)cc1 [No. I.6, N-(4′-trifluoromethylbiphenyl-2-yl)-1,3-dimethyl-1H-pyrazole-4-carboxamide]
- melting point: 174 to 177 °C

Compound: Cn1cc(C(=O)Nc2ccccc2-c2ccc(C(F)(F)F)cc2)c(CF)n1 [No. I.7, N-(4′-trifluoromethylbiphenyl-2-yl)-1-methyl-3-fluoromethyl-1H-pyrazole-4-carboxamide]
- melting point: 156 to 158 °C

Compound: Cn1nc(Cl)c(C(=O)Nc2ccccc2-c2ccc(C(F)(F)F)cc2)c1C(F)F [No. I.8, N-(4′-trifluoromethylbiphenyl-2-yl)-1-methyl-3-chlorodifluoromethyl-1H-pyrazole-4-carboxamide]
- melting point: 193 to 196 °C

Compound: N#Cc1c(Cl)c(Cl)c(Cl)c(C#N)c1Cl [chlorthalonil, 2,4,5,6-tetrachloroisophthalonitrile, reference compound]
- Observed activity ([2]; 16 mg/l): 0%
- Observed activity (efficacy, % of untreated control) ([1]; 16 mg/l): 0%

Compound: COc1ccc(C(=CC(=O)N2CCOCC2)c2ccc(Cl)cc2)cc1OC [dimethomorph, 3-(4-chlorophenyl)-3-(3,4-dimethoxyphenyl)-1-morpholin-4-yl-propenone]
- Observed activity ([2]; 16 mg/l): 0%
- Observed efficacy (% of untreated control) ([5]; 63 mg/l): 0%

Compound: COc1cc(C)c(C(=O)c2c(OC)ccc(Br)c2C)c(OC)c1OC [metrafenone, 3′-bromo-2,3,4,6′-tetramethoxy-2′,6-dimethylbenzophenone]
- Observed activity ([2]; 4 mg/l): 0%
- Observed efficacy (% of untreated control) ([5]; 63 mg/l): 0%

Compound: COC(=O)N(OC)c1ccccc1COc1ccn(-c2ccc(Cl)cc2)n1 [pyraclostrobin, methyl N-{2-[1-(4-chlorophenyl)-1H-pyrazol-3-yloxymethyl]phenyl}(N-methoxy)carbamate, reference compound]
- Observed efficacy (% of untreated control) [4]: 10%

Compound: CC1(C)CC/C(=C\c2ccc(Cl)cc2)C1(O)Cn1cncn1 (stereo not shown) [triticonazole, (5E)-5-[(4-chlorophenyl)methylene]-2,2-dimethyl-1-(1H-1,2,4-triazol-1-ylmethyl)cyclopentanol, reference compound]
- Observed activity (% infection) [3]: 0%

Compound: zinc ammoniate ethylenebis(dithiocarbamate) [metiram]
- Observed activity ([2]; 16 mg/l): 0%
